# Where a name gives a salt, the structure may show the parent alone.
# Target: CCR4 (Homo sapiens (Human), UniProt P51679)
# Assay: Calcium mobilization (Ca Flux) assay
# Assay type: cell-based
# Experimental: Calcium Mobilization Assay. Calcium mobilization experiments may be performed by labeling the human T-cell line CEM with […] dye (45 min at room temperature), washing with PBS, and re-suspending into flux buffer (HBSS with 1% FBS).
# CCR4, sequence (P51679 whole entry): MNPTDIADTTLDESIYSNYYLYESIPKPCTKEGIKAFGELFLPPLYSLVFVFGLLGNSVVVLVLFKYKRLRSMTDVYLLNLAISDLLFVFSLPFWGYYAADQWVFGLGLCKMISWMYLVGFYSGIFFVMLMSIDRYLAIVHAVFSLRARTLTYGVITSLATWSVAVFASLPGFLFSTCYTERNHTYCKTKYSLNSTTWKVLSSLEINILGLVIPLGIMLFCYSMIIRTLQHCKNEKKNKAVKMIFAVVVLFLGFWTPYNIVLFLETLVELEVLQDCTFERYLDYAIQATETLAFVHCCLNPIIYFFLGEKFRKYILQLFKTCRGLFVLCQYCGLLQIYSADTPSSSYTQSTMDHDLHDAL
row,IC50 [nM],Structure (SMILES)
1,100 to 500,"CCC1CN(c2cnc3cnn(C(C)c4ccc(Cl)cc4Cl)c3n2)CCC1N1CCCCC1 (stereo not shown) [Example 9, 1-(1-(2,4-Dichlorophenyl)ethyl)-6-(3′-ethyl-[1,4′-bipiperidin]-1′-yl)-1H-pyrazolo[3,4-b]pyrazine hydrochloride]"
2,100 to 500,"Cc1nn([C@H](C)c2ccc(Cl)cc2Cl)c2nc(N3CCC(C4CCCN(CCC(=O)O)C4)C(C)C3)cnc12 (stereo partly drawn) [Example 67, 3-(1′-(1-((R)-1-(2,4-Dichlorophenyl)ethyl)-3-methyl-1H-pyrazolo[3,4-b]pyrazin-6-yl)-3′-methyl-[3,4′-bipiperidin]-1-yl)propanoic acid hydrochloride]"
3,100 to 500,"Cc1nn([C@H](C)c2ccc(Cl)cc2Cl)c2nc(N3CC[C@H](N4CCC[C@H]4CCC(=O)O)[C@H](C)C3)cnc12 [Example 42, 3-((S)-1-((3R,4S)-1-(1-((R)-1-(2,4-dichlorophenyl)ethyl)-3-methyl-1H-pyrazolo[3,4-b]pyrazin-6-yl)-3-methylpiperidin-4-yl)pyrrolidin-2-yl)propanoic acid hydrochloride]"
4,> 500,"Cc1nn([C@H](C)c2ccc(Cl)cc2Cl)c2nc(N3CC[C@H](N4C[C@H](O)C[C@H]4C(=O)O)[C@H](C)C3)cnc12 [Example 37, (2S,4R)-1-((3R,4S)-1-(1-((R)-1-(2,4-Dichlorophenyl)ethyl)-3-methyl-1H-pyrazolo[3,4-b]pyrazin-6-yl)-3-methylpiperidin-4-yl)-4-hydroxypyrrolidine-2-carboxylic acid 2,2,2-trifluoroacetate]"
5,< 100,C[C@@H]1CC(c2cnc3c(C#N)nn([C@H](C)c4ccc(Cl)cc4Cl)c3n2)=CCC1N1CCC[C@H]1C (stereo partly shown) [Example 83]
6,100 to 500,"C[C@@H]1C=C(c2cnc3c(C#N)nn([C@H](C)c4ccc(Cl)cc4Cl)c3n2)CC[C@@H]1N1CCC[C@H]1CO [Example 69, 1-((R)-1-(2,4-Dichlorophenyl)ethyl)-6-((3R,4S)-4-((S)-2-(hydroxymethyl)pyrrolidin-1-yl)-3-methylcyclohex-1-en-1-yl)-1H-pyrazolo[3,4-b]pyrazine-3-carbonitrile hydrochloride]"
7,> 500,"C[C@H](c1ccc(Cl)cc1Cl)n1nc(C#N)c2ncc(N3CC[C@H](N4CCC[C@H]4C(=O)O)[C@H](C(C)(C)O)C3)nc21 [Example 64, ((3R,4S)-1-(3-Cyano-1-((R)-1-(2,4-dichlorophenyl)ethyl)-1H-pyrazolo[3,4-b]pyrazin-6-yl)-3-(2-hydroxypropan-2-yl)piperidin-4-yl)-L-proline hydrochloride]"
